For test [1], the target named is rat brain adenylyl cyclase. Conditions: cited from earlier work.
Test [2] has as its system F442A pre-adipocytes. The experiment in a line: inhibition of forskolin-stimulated [3H]cAMP formation in cells prelabeled with [3H]adenine, F442A. It is filed as cell-based. To be noted: 15 min preincubation, forskolin 15 min. On the procedure:
(§1) The nucleotide prodrugs were tested for their capacity to inhibit the forskolin-stimulated formation of [^3H]cAMP in cells that had been preloaded with [^3H]adenine. Human macrophages and two preadipocyte cell lines were tested.
(§2) (i) Preadipocytes: Preadipocytes were cultured in DMEM LG medium that was supplemented with 8% fetal bovine serum and 1% of an antibiotics mixture in 2 ml Petri dishes until they reached 90-95% confluence. Growth medium was removed and 1 ml of DMEM LG medium containing 2,8-[^3H]-adenine (5μCi) was added to each dish. Cells were incubated for 2 h at 37° C. Medium was removed and cells were incubated for 15 min at 37° C. in 1 ml of unsupplemented medium. The medium was removed and 1 ml of DMEM LG medium supplemented with 0.1 mg/ml bovine serum albumin and 0.1 mM 3-isobutyl-1-methylxanthine was added.
(§3) Ten microliters of a solution of the test substance was added to yield the appropriate concentration of inhibitor in the medium. After 15 min of incubation at 37° C. 3 μl of a 10 mM solution of forskolin in ethanol was added to the medium and the cells were further incubated for 15 min at 37° C. The medium was removed and the reaction was stopped by the addition of 1 ml of a freshly prepared solution of 0.5 mM solution of cAMP in 0.3 M perchloric acid. Dishes were then kept on ice for 30 min. To 800 μl of the resulting cell extract was then added 90 μl of 0.5 M triethanolammonium chloride butler (pH=7.5). The extract was then neutralized by addition of aqueous potassium hydroxide. [^3H]cAMP was purified from a 700 μl portion of this mixture by sequential chromatography on Dowex 50 and alumina as previously described. A portion of the purified sample was used to quantify the […] formed and the remainder was used to quantify recovery by UV spectroscopy.
Background: Cyclic AMP is a second messenger, typically raised through Gs and lowered through Gi signalling.

In test [3] the test system is isoproterenol-stimulated, cAMP/PKA-dependent Cl− channel of cardiac ventricular myocytes. The experiment in a line: block of isoproterenol-stimulated Cl- channel in cardiac ventricular myocytes. It is filed as cell-based. Conditions: not shown, read-out: IC50 for block of Cl− channel function.
In test [4] the test system is rat brain adenylyl cyclase. The experiment in a line: inhibition of rat brain adenylyl cyclase. It counts as biochemical. On the procedure: (§4) Adenylyl cyclase activities were determined as previously described, with a reaction mixture containing 100 μM 5′ATP, 5 mM MnCl2, and 100 μM forskolin. IC50 values were determined graphically.
Test [5] relates to adenylyl cyclase isolated from these tissues. The experiment in a line: effect on adenylyl cyclase isolated from the tissues. To be noted: concentrations up to 300 μM. It counts as biochemical.
Test [6] deals with Ob1771 pre-adipocytes. The experiment in a line: inhibition of forskolin-stimulated [3H]cAMP formation in cells prelabeled with [3H]adenine, Ob1771. Conditions: read-out: IC50, forskolin-stimulated [3H]cAMP formation, Ob1771 pre-adipocytes. It counts as cell-based. On the procedure: as §1, §2, §3
For test [7], the system named is adenylyl cyclase of Ob1771 cell membranes. The experiment in a line: inhibition of adenylyl cyclase of Ob1771 cell membranes. It is filed as biochemical. To be noted: for IC50: 100 μM 5′ATP, 5 mM MnCl2, 100 μM forskolin, determined graphically. On the procedure: as §4
For test [8], the system named is Human Macrophages. The experiment in a line: inhibition of forskolin-stimulated [3H]cAMP formation in cells prelabeled with [3H]adenine, macrophages. It counts as cell-based. Conditions: read-out: IC50, forskolin-stimulated [3H]cAMP formation, Human Macrophages. On the procedure:
as §1
(ii) Macrophages. Macrophages were plated on culture dishes and allowed to adhere in RPMI culture medium. Cells were labeled with 2,8-[^3H]-adenine as described above for the preadipocytes.
as §3

The test system of test [9] is rat atria. The experiment in a line: contractility of isolated spontaneously contracting rat atria. Conditions: preincubation with 10 μM for 15 min. On the procedure:
To test this, rat atria were excised from a male albino rat and attached to a strain gauge to allow contractions to be measured. The spontaneously contracting tissue was suspended in a chamber and allowed to equilibrate for 15 min in Krebs-Henseleit medium (Sigma K3753) supplemented with 25 mM […], 2.5 mM CaCl2, and 2 mM pyruvate, maintained at 37° and continuously gassed with […].

Test [10] concerns preadipocyte cell lines. The experiment in a line: differentiation of preadipocyte cell lines. It is filed as cell-based. To be noted: both preadipocyte cell lines; not shown.
Where [11] appears, read: Table 1, from Johnson and coll. [27-32], read-out: IC50 for rat brain adenylyl cyclase.
[12] abbreviates: Ob1771, 15 min preincubation, forskolin 15 min.
Where [13] appears, read: Table 1, read-out: IC50 to inhibit adenylyl cyclase.
Where [14] appears, read: 100 μM 5′ATP, 5 mM MnCl2, 100 μM forskolin, determined graphically, read-out: IC50, Rat Brain Adenylyl Cyclase.
[15] abbreviates: 2′-triphosphate forms, read-out: IC50 for inhibition of rat brain adenylyl cyclase.

Molecules are shown by their SMILES. Where two headings read alike, the source gives them in different places. Bounds are passed on as bounds.

What is called IC50 is the midpoint of a concentration-inhibition curve. As to `Nc1ncnc2c1ncn2C1CC(OP(=O)(O)OP(=O)(O)OP(=O)(O)O)C(CO)O1` (centres unmarked) [2′dAdo 3′˜PPP], the IC50 in test [1] (setting [11]) was 0.09 µM.

Consider `CC1OC(n2cnc3c(N)ncnc32)CC1OP(=O)(O)OP(=O)(O)OP(=O)(O)OP(=O)(O)O` (centres unmarked) [2′,5′ddAdo 3′˜PPPP], for which the IC50 in [1] (setting [11]) was 0.0074 µM.

Take `C[C@H]1O[C@@H](n2cnc3c(N)ncnc32)C[C@@H]1O` [2′,5′ddAdo, 2′,5′-dideoxyadenosine]: the 50% inhibitory concentration (IC50) in [1] (setting [11]) was 2.7 µM.

As for `Nc1ncnc2c1ncn2C1CC(OP(=O)(O)OP(=O)(O)O)C(CO)O1` (centres unmarked) [2′dAdo 3′˜PP], in [1] (setting [11]), the IC50 is 0.14 µM.

Consider `C[C@H]1O[C@@H](n2cnc3c(N)ncnc32)C[C@@H]1OP(=O)(OCCSC(=O)C(C)(C)C)OCCSC(=O)C(C)(C)C` [Compound 2, 2,5′-dideoxyadenosine-3′-O-bis(S pivaloyl-2-thioethyl) phosphate], for which the IC50 in [2] was 0.1 µM; in [3] it was around 0.082 µM; in test [6] (setting [12]), 0.03 µM; in test [8] (human macrophages, 15 min preincubation, forskolin 15 min), 0.05 µM. In addition, the “inhibition of Rat Brain Adenylyl Cyclase at 100 μM” value in test [4] (at 100 μM) is “no inhibition”. In test [4] (isolated enzyme), the “effect on the activity of adenylyl cyclases per se, enzyme from rat brain” value is on record as “no effect”. Also, the “effect on adenylyl cyclase isolated from these tissues” value in [5] was “no effect”. Further, in [7] (at 100 μM), the “inhibition of adenylyl cyclase of Ob1771 cell membranes at 100 μM” value worked out at 20% inhibition. Besides, the “effect on the activity of adenylyl cyclases per se, enzyme from the preadipocytes” value in test [7] (isolated enzyme) is “no effect”. The “stimulation of contractility caused by phenylephrine” value in [9] is given as “completely blocked”. In addition, the “stimulation of contractility caused by forskolin” value in test [9] (not shown) is listed as “completely blocked”. In addition, in [10], the rate of differentiation result is “accelerated rates of differentiation”.

Turning to `C[C@H]1O[C@@H](n2cnc3c(N)ncnc32)C[C@@H]1OP(=O)(O)O` [2′,5′ddAdo 3′˜P], in test [1] (setting [11]), the IC50 was 0.46 µM.

As to `Nc1ncnc2c1ncn2CCOCP(=O)(O)O` [PMEA, 9-(phosphonomethoxyethyl)-adenine], in test [1] (setting [11]), the IC50 is 65 µM.

In the case of `Nc1ncnc2c1ncn2C1OC(CO)C(OP(=O)(O)OP(=O)(O)O)C1O` (centres unmarked) [Ado 3′˜PP], the IC50 in test [1] (setting [11]) was 3.9 µM.

Consider `Nc1ncnc2c1ncn2[C@H]1C[C@H](OP(O)(O)=S)[C@@H](CO)O1` [2′dAdo 3′˜PS], for which the IC50 in test [1] (setting [11]) is 3.1 µM.

On to `Nc1ncnc2c1ncn2C1OC(CO)C(OP(=O)(O)O)C1O` (centres unmarked) [Ado 3′˜P], for which, in test [1] (setting [11]), the IC50 is 8.9 µM.

Consider `Nc1ncnc2c1ncn2CCOCP(=O)(O)OP(=O)(O)OP(=O)(O)O` [PMEApp], for which, in [1] (setting [13]), the IC50 was 0.17 µM.

As to `CC1OC(n2cnc3c(N)ncnc32)CC1OP(=O)(O)OP(=O)(O)O` (centres unmarked) [2′,5′ddAdo 3′˜PP], the IC50 in test [1] (setting [11]) was 0.1 µM.

Take `Nc1ncnc2c1ncn2C1CC(OP(=O)(O)OP(=O)(O)OP(=O)(O)OP(=O)(O)O)C(CO)O1` (centres unmarked) [2′dAdo 3′˜PPPP]: in test [1] (setting [11]), the IC50 was 0.0105 µM.

For the compound `Nc1ncnc2c1ncn2[C@H]1C[C@H](OP(=O)(O)O)[C@@H](CO)O1` [2′dAdo 3′˜P], the IC50 in test [1] (setting [11]) is 1.2 µM.

With `Nc1ncnc2c1ncn2[C@@H]1O[C@H](CO)[C@@H](O)[C@H]1O` [Ado], the IC50 in test [1] (setting [11]) was 82 µM.

For `CC(C)(C)C(=O)SCCOP(=O)(OCCSC(=O)C(C)(C)C)O[C@H]1CCC[C@H]1n1cnc2c(N)ncnc21` [(1R,2S)-9-(cyclopentyl)-Ade-2′-P-bis(t-Bu-SATE)], in test [6] (setting [12]), the IC50 was above 30 µM.

In the case of `C[C@H]1O[C@@H](n2cnc3c(N)ncnc32)C[C@@H]1OP(O)(O)=S` [2′,5′ddAdo 3′˜PS], the IC50 in [1] (setting [11]) was 0.6 µM.

Turning to `Nc1ncnc2c1ncn2[C@H]1O[C@@H](COP(=O)(O)O)[C@H](O)[C@@H]1O` [β-L-5′-AMP], in test [1] (setting [11]), the IC50 is 200 µM.

In the case of `CC(C)(C)C(=O)SCCOP(=O)(OCCSC(=O)C(C)(C)C)OC[C@@H]1CC[C@H](n2cnc3c(N)ncnc32)O1` [Compound 8, β-L-2′,3′-dideoxyadenosine-5′-O-bis(S-pivaloyl-2-thioethyl)-phosphate], the half-maximal inhibitory concentration (IC50) in test [6] (setting [12]) was above 30 µM.

In the case of `Nc1ncnc2c1ncn2[C@H]1C[C@H](O)[C@@H](CO)O1` [2′dAdo], the IC50 in test [1] (setting [11]) was 15 µM.

As to `Nc1ncnc2c1ncn2[C@@H]1CC[C@H](COP(=O)(O)O)O1` [β-L-2′,3′-dd-5′-AMP], in test [1] (setting [11]), the IC50 is 62 µM.

In turn, `C[C@H]1O[C@@H](n2cnc3c(N)ncnc32)C[C@@H]1OP(=O)(OCCSC(=O)c1ccccc1)OCCSC(=O)c1ccccc1` [Compound 3, 2,5′-dideoxyadenosine-3′-O-bis(S-benzoyl-2-thioethyl) phosphate] showed an IC50 in test [2] of 0.8 µM.

With `C[C@H]1O[C@@H](n2cnc3c(N)ncnc32)C[C@@H]1OP(=O)(O)OP(=O)(O)OP(=O)(O)O` [2′,5′ddAdo 3′˜PPP], the IC50 in test [1] (setting [13]) is 0.04 µM.

As for `CC1OC(n2cnc3c(N)ncnc32)CC1OP1(=O)OCc2ccccc2O1` (centres unmarked) [Compound 10, 2′,5′-dideoxyadenosine-3.0-cyclosaligenyl phosphate], the IC50 in test [4] (setting [14]) was 7 µM; in [6], around 2 µM; in test [7] it was 30 µM; in test [8] (Homo sapiens, Macrophage) it was around 2 µM.

For `CC(C)(C)C(=O)SCCOP(=O)(OCCSC(=O)C(C)(C)C)O[C@@H]1CCC[C@@H]1n1cnc2c(N)ncnc21` [(1S,2R)-9-(cyclopentyl)-Ade-2′-P-bis(t-Bu-SATE)], the IC50 in test [6] (setting [12]) is above 30 µM.

Turning to `Nc1ncnc2c1ncn2[C@@H]1O[C@H](CO)[C@@H](OP(=O)(O)OP(=O)(O)OP(=O)(O)O)[C@H]1O` [Ado 3′˜PPP], the IC50 in [1] (setting [11]) is 2 µM.

The compound `C[C@H](Cn1cnc2c(N)ncnc21)OCP(=O)(OCCSC(=O)C(C)(C)C)OCCSC(=O)C(C)(C)C` [Compound 16, (R)-Bis(S-pivaloyl-2-thioethyl) 9-(2-phosphonylmethoxypropyl)-adenine] displayed an IC50 in test [2] above 30 µM.

As to `C[C@H]1O[C@@H](n2cnc3c(N)ncnc32)C[C@@H]1OP(=O)(OCCSC(=O)C(C)(C)C)OCCSC(=O)C(C)(C)C` [Compound 5, β-L-2′,5′-dideoxyadenosine-3′-O-bis(S-pivaloyl-2-thioethyl)-phosphate], in test [2], the IC50 is around 2 µM.

Regarding `Nc1ncnc2c1ncn2C1CCC(COP(=O)(O)OP(=O)(O)OP(=O)(O)O)O1` [β-L-2′,3′-dd-5′-ATP], the IC50 in test [1] (setting [13]) was 0.024 µM.

With `Cc1cccc2c1OP(=O)(OC1CC(n3cnc4c(N)ncnc43)OC1C)OC2` (centres unmarked) [Compound 11, 2′,5′-dideoxyadenosine-3′-O-cyclo-3-methyl-saligenyl phosphate], the IC50 was 7 µM in test [4] (setting [14]), around 2 µM in test [6] and 60 µM in test [7].

With `Nc1ncnc2c1ncn2[C@H]1CCC[C@H]1OP(=O)(O)OP(=O)(O)OP(=O)(O)O` [reference compound], in test [4] (setting [15]), the IC50 is 9.86 µM.

Regarding `CC(C)(C)C(=O)SCCOP(=O)(COCCn1cnc2c(N)ncnc21)OCCSC(=O)C(C)(C)C` [Compound 13, bis(t-Bu-SATE)-9-(2-phosphonomethoxyethyl)-adenine], the IC50 in [6] (setting [12]) was above 30 µM.

On to `CC(=O)SCCOP(=O)(OCCSC(C)=O)O[C@H]1C[C@H](n2cnc3c(N)ncnc32)O[C@@H]1C` [Compound 1, 2′,5′-dideoxyadenosine-3′-O-bis(S-acetyl-2-thioethyl) phosphate], for which, in test [2], the IC50 came to 0.03 µM.

Consider `Nc1ncnc2c1ncn2[C@@H]1CCC[C@@H]1OP(=O)(O)OP(=O)(O)OP(=O)(O)O` [reference compound], for which the IC50 in test [4] (setting [15]) amounted to 0.45 µM.

Source of the values: patent US7045309B2, “9-substituted adenine derivatives as prodrug regulators of cell and tissue function” (The Research Foundation of State University of New York, priority 2000, dated 2006).
